Results taken from ChEMBL document CHEMBL1150636, “Antiemetic principles of Alpinia officinarum” (2002).

system: Gallus gallus; experiment: Antiemetic activity against copper sulphate-induced emesis in young chicks assessed as decrease in retching at 50 mg/kg, ip measured for 10 mins; assay type: functional; settings: route intraperitoneal

Q: How did the inhibition in vivo at 50 mg/kg turn out when `CCCCCCCCCCCCCCCC(=O)OC[C@H]1O[C@@H](O[C@H]2CC[C@@]3(C)C(=CC[C@H]4[C@@H]5CC[C@H]([C@H](C)CC[C@H](CC)C(C)C)[C@@]5(C)CC[C@@H]43)C2)[C@H](O)[C@@H](O)[C@@H]1O` was run?
A: Its inhibition in vivo at 50 mg/kg is 50.9%.

Q: With `COc1cc(CCC(O)CC(O)CCc2ccccc2)ccc1O` (stereo not drawn) as the compound, how does the inhibition in vivo at 50 mg/kg read?
A: The inhibition in vivo at 50 mg/kg was 45.7%.

Q: How did the inhibition in vivo at 50 mg/kg turn out when `COc1cc(CC[C@@H](O)CC(=O)CCc2ccc(O)cc2)ccc1O` was run?
A: The inhibition in vivo at 50 mg/kg was 38.3%.

Q: For `Oc1ccc(CC[C@@H](O)C[C@H](O)CCc2ccccc2)cc1`, which inhibition in vivo at 50 mg/kg is on record?
A: The inhibition in vivo at 50 mg/kg was 37.7%.

Q: How did the inhibition in vivo at 50 mg/kg turn out when `COc1cc(CCC(=O)C[C@H](O)CCc2ccc(O)cc2)ccc1O` was run?
A: The inhibition in vivo at 50 mg/kg was 12.4%.

system: Gallus gallus; experiment: Antiemetic activity against copper sulfate-induced emesis in young chicks assessed as decrease in retching at 20 mg/kg, ip measured for 10 mins; assay type: functional; settings: route intraperitoneal

Q: Which inhibition in vivo at 20 mg/kg does the source give for `O=c1c(O)c(-c2ccccc2)oc2cc(O)cc(O)c12` [GALANGIN] here?
A: The inhibition in vivo at 20 mg/kg was 25.4%.

Q: `COc1ccc(-c2oc3cc(O)cc(O)c3c(=O)c2O)cc1` [KAEMPFERIDE] was tested. Which inhibition in vivo at 20 mg/kg did it give?
A: The inhibition in vivo at 20 mg/kg was 63.3%.

Q: How did the inhibition in vivo at 20 mg/kg turn out when `O=C(CCc1ccccc1)CC(O)CCc1ccc(O)cc1` (stereo not drawn) was run?
A: The inhibition in vivo at 20 mg/kg was 71%.
